From US11685746B2, “Heteroaryl compounds for treating Huntington's disease” (PTC THERAPEUTICS, INC., priority 2018, dated 2023) come the findings set out here.

For the assay, the system named is Endogenous Huntingtin Protein. The assay is described as follows: Endogenous Huntingtin Protein Assay (MSD plates, MW1 or MAB2166 capture antibody). The format is cell-based. The following applies: Table 1. In a few lines:
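Endogenous huntingtin was captured overnight at 4° C on wells coated with 1 μg/mL MW1 (polyglutamine-specific) or MAB2166. Detection used rabbit #5656S and then goat anti-rabbit SULFO-TAG, both at 0.25 μg/mL and 1 h at room temperature. Plates were imaged on the MSD system in read buffer T.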

Each structure is given as a SMILES string.

Take `C[C@H]1C[C@H](N(C)c2nc3sc(-c4ncc(-n5ccnc5)c5cc[nH]c45)nc3s2)CCN1` [Compound 80, 5-[4-(1H-imidazol-1-yl)-1H-pyrrolo[2,3-c]pyridin-7-yl]-N-methyl-H-[(2S,4R)-2-methylpiperidin-4-yl][1,3]thiazolo[5,4-d][1,3]thiazol-2-amine]: the IC50 was ≤ 100 nM.
On to `C[C@H]1C[C@H](Oc2nc3sc(-c4ncc(-c5nnn(C)n5)c5cc[nH]c45)nc3s2)CCN1` [Compound 81, 7-(5-{[(2S,4R)-2-methylpiperidin-4-yl]oxy}[1,3]thiazolo[5,4-d][1,3]thiazol-2-yl)-4-(2-methyl-2H-tetrazol-5-yl)-1H-pyrrolo[2,3-c]pyridine], for which the IC50 is ≤ 100 nM.
For the molecule `C[C@@H]1C[C@@H](Oc2nc3sc(-c4ccc(-c5cn[nH]c5)c5cc[nH]c45)nc3s2)CCN1` [Compound 82, 7-(5-{[(2R,4S)-2-methylpiperidin-4-yl]oxy}[1,3]thiazolo[5,4-d][1,3]thiazol-2-yl)-4-(1H-pyrazol-4-yl)-1H-indole], the IC50 was ≤ 100 nM.
Take `C[C@@H]1C[C@@H](Oc2nc3sc(-c4ncc(-c5cn[nH]c5)c5nc[nH]c45)nc3s2)CCN1` [Compound 83, 4-(5-{[(2R,4S)-2-methylpiperidin-4-yl]oxy}[1,3]thiazolo[5,4-d][1,3]thiazol-2-yl)-7-(1H-pyrazol-4-yl)-3H-imidazo[4,5-c]pyridine]: the IC50 was ≤ 100 nM.
The value for `C[C@H]1C[C@H](Oc2nc3sc(-c4ncc(-c5cn[nH]c5)c5cc[nH]c45)nc3s2)CCN1C` [Compound 84, 7-(5-{[(2S,4R)-1,2-dimethylpiperidin-4-yl]oxy}[1,3]thiazolo[5,4-d][1,3]thiazol-2-yl)-4-(1H-pyrazol-4-yl)-1H-pyrrolo[2,3-c]pyridine] was ≤ 100 nM.
For `C[C@@H]1C[C@@H](N(C)c2nc3sc(-c4ncc(-c5cn[nH]c5)c5cc[nH]c45)nc3s2)CCN1` [Compound 85, N-methyl-N-[(2R,4S)-2-methylpiperidin-4-yl]-5-[4-(1H-pyrazol-4-yl)-1H-pyrrolo[2,3-c]pyridin-7-yl][1,3]thiazolo[5,4-d][1,3]thiazol-2-amine] the value was ≤ 100 nM.
As for `Cc1[nH]ncc1-c1cnc(-c2nc3sc(N(C)[C@H]4C[C@]5(C)CC[C@](C)(C4)N5)nc3s2)cn1` [Compound 86, N-[(1R,3s,5S)-1,5-dimethyl-8-azabicyclo[3.2.1]octan-3-yl]-N-methyl-5-[5-(5-methyl-1H-pyrazol-4-yl)pyrazin-2-yl][1,3]thiazolo[5,4-d][1,3]thiazol-2-amine], the IC50 is ≤ 100 nM.
For the molecule `C[C@@H]1C[C@@H](N(C)c2nc3sc(-c4ncc(-c5cn[nH]c5)c5cc[nH]c45)nc3s2)CCN1` [Compound 87, N-methyl-N-[(2R,4S)-2-methylpiperidin-4-yl]-5-[4-(1H-pyrazol-4-yl)-1H-pyrrolo[2,3-c]pyridin-7-yl][1,3]thiazolo[5,4-d][1,3]thiazol-2-amine], the IC50 is ≤ 100 nM.
On to `Cc1cn(-c2cnc(-c3nc4sc(N(C)[C@H]5C[C@]6(C)CC[C@](C)(C5)N6)nc4s3)cn2)cn1` [Compound 88, N-[(1R,3s,5S)-1,5-dimethyl-8-azabicyclo[3.2.1]octan-3-yl]-N-methyl-5-[5-(4-methyl-1H-imidazol-1-yl)pyrazin-2-yl][1,3]thiazolo[5,4-d][1,3]thiazol-2-amine], for which the IC50 is ≤ 100 nM.
Consider `CN(c1nc2sc(-c3cnc(-c4cnn(C)c4)cn3)nc2s1)[C@H]1C[C@]2(C)CC[C@](C)(C1)N2` [Compound 89, N-[(1R,3s,5S)-1,5-dimethyl-8-azabicyclo[3.2.1]octan-3-yl]-N-methyl-5-[5-(1-methyl-1H-pyrazol-4-yl)pyrazin-2-yl][1,3]thiazolo[5,4-d][1,3]thiazol-2-amine], for which the IC50 was ≤ 100 nM.
For the molecule `CCn1cc(-c2cnc(-c3nc4sc(N(C)[C@H]5CCN[C@H](C)C5)nc4s3)c3[nH]ccc23)cn1` [Compound 90, 5-[4-(1-ethyl-1H-pyrazol-4-yl)-1H-pyrrolo[2,3-c]pyridin-7-yl]-N-methyl-N-[(2R,4S)-2-methylpiperidin-4-yl][1,3]thiazolo[5,4-d][1,3]thiazol-2-amine], the IC50 was ≤ 100 nM.

What is called IC50 is the concentration that inhibits the measured activity by half. A low value points to inhibition by little substance.
